Test results from patent US20100279984A1, “PHARMACEUTICAL COMPOSITIONS CONTAINING BENFOTIAMINE AND ONE OR ONE MORE PHARMACEUTICALLY ACTIVE AGENTS FOR THE TREATMENT OF PAIN CONDITIONS OF NEUROPATHIC ORIGIN” (Merck Patent GmbH, priority 2007, published 2010).

What was measured:
[1] = system: tactile allodynia induced by ligation of L5 and L6 spinal nerves; assay: Antiallodynic activity: tactile allodynia (von Frey paw withdrawal threshold) in L5/L6 spinal nerve ligated rats (Kim and Chung model); assay type: in vivo, female Wistar rats; details: for ED30 (dose producing 30% of antiallodynia): drug alone, 60 min before threshold evaluation, ±SEM; for ED30 (dose producing 30% of antiallodynia) / reduction of tactile allodynia (in words): spinal nerve ligated rats; for reduction of tactile allodynia (in words): P<0.05
Method: The purpose of this study was to assess the possible synergistic interaction between gabapentin and benfotiamine in a neuropathic pain model in the rat (Kim, S. H. and Chung, J. M.: Pain 50: 355-363 (1992)). In addition, the possible synergistic interaction between gabapentin and benfotiamine was also assessed in rats with neuropathic pain. Neuropathic pain was induced by ligation of the left L5 and L6 spinal nerves of female Wistar rats. Tactile allodynia was determined by measuring paw withdrawal in response to probing with a series of calibrated von Frey filaments.
Female Wistar rats aged 6-7 weeks (weight range, 120-140 g) from our own breeding facilities were used in this study. Animals had free access to food and drinking water before experiments. Efforts were made to minimize animal suffering and to reduce the number of animals used. All experiments followed the Guidelines on Ethical Standards for Investigation of Experimental Pain in Animals (Zimmermann. M.: Pain 16: 109-110 (1983)). Additionally, the study was approved by the Institutional Animal Care and Use Committee (Centro de Investigacion y de Estudios Avanzados del Instituto Politecnico Nacional, Mexico, D.F., Mexico).
Evaluation of antiallodynic activity: Rats were prepared according to the method of Kim and Chung (Kim, S. H. and Chung, J. M.: Pain 50: 355-363 (1992)). Animals were anesthetized with a mixture of ketamine/xylazine (45-12 mg/kg, i.p.). After surgical preparation and exposure of the dorsal vertebral column, the L5 and L6 spinal nerves were exposed and tightly ligated with 6-0 silk suture distal to the dorsal root ganglion. For sham operated rats, the nerves were exposed but not ligated. The incisions were closed, and the animals were allowed to recover for 15 days. […] Tactile allodynia was determined by measuring paw withdrawal in response to probing with a series of calibrated fine filaments (von Frey filaments). The strength of the von Frey stimuli range from 0.4 to 15 g. Withdrawal thresholds were determined by increasing and decreasing stimulus strength eliciting paw withdrawal (Chaplan, S. R., et al.: J. Neurosci Meth. 53: 55-63 (1994)). All nerve-ligated rats were verified to be allodynic (responding to a stimulus of less than 4 g).
(§1) Drugs: Gabapentin was purchased from Research Biochemicals International (Natick, Mass., USA). Benfotiamine was purchased from Sigma. Gabapentin and benfotiamine were dissolved in saline and given at a volume ratio of 4 ml/kg. Study design: Rats received the oral administration of saline or increasing doses of gabapentin (30-300 mg/kg), benfotiamine (75-300 mg/kg) or the combination of gabapentin and benfotiamine 60 min before evaluation of threshold in spinal nerve injured rats. Observer was unaware of the treatment in each animal. Rats in all groups were tested for possible side effects such as reduction of righting, stepping, corneal and pinna reflexes before and after drug treatment.
Data analysis and statistics: Curves were constructed plotting the threshold for paw withdrawal as a function of time. Threshold for paw withdrawal was also expressed as the % of antiallodynia. % antiallodynia was calculated with the following equation: % antiallodynia=((area under the withdrawal theshold against time curve (AUC) of the treatment−AUC saline)/(AUC sham−AUC saline)×100. The dose-response curves were fitted using least-squares linear regression and ED30 and its standard error (SEM) were calculated according to the method described by Tallarida (Tallarida, R. J.: Drug Synergism and Dose-Effect Data Analysis. 1st Ed., New York, Chapman and Hall/CRC, pp 1-72 (2000)).
For evaluation of the interaction between gabapentin and benfotiamine, isobolograms were constructed using ED30 values obtained when the drugs were administered alone or combined. We used ED30 instead of ED50 values because benfotiamine was not able to reach more than 30% of antiallodynia in the model. […]

[2] = system: righting, stepping, corneal and pinna reflexes; assay: Side effect testing: righting, stepping, corneal and pinna reflexes before and after drug treatment; assay type: in vivo, female Wistar rats
Method: as §1

## C/C(=C(\CCOP(=O)(O)O)SC(=O)c1ccccc1)N(C=O)Cc1cnc(C)nc1N [Benfotiamine]
[1]; oral administration, FIG. 5
  antiallodynic effect compared with thiamine (in words): higher antiallodynic effect than thiamine
[1]; oral administration
  ED30 (dose producing 30% of antiallodynia): 47.4 ± 10 mg/kg
  reduction of tactile allodynia (in words): modest dose-dependent reduction
[1]; oral benfotiamine 75-300 mg/kg, reason for using ED30 instead of ED50
  % of antiallodynia reached in the model: ≤ 30%
[2]; rat, in vivo, po
  effect on assessed reflexes (righting, stepping, corneal, pinna): no evidence of modification of assessed reflexes

## NCC1(CC(=O)O)CCCCC1 [Gabapentin]
[1]; oral administration
  ED30 (dose producing 30% of antiallodynia): 16.6 ± 2.6 mg/kg
  reduction of tactile allodynia (in words): reduced in a dose-dependent manner
[1]; oral, at 300 mg/kg
  maximal antiallodynic effect: 100%
[2]; oral, at the selected doses
  effect on assessed reflexes (righting, stepping, corneal, pinna): No reduction in the assessed reflexes
